Measurements: PubChem BioAssay (NCI)
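Growth conditions: 96-well plates. Treatment: test compound, 48 hours, 5 concentrations. Analysis: linear interpolation between bracketing concentrations; unreached endpoints set to highest concentration. Definition used: TGI = concentration required for complete inhibition of growth.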

Experiments:
Test in all cases: NCI-60 cell line screen, 48 h
[1] = tested on: 786-0 renal
[2] = tested on: A498 renal
[3] = tested on: A549 NSCLC
[4] = tested on: ACHN renal
[5] = tested on: BT-549 breast
[6] = tested on: CAKI-1 renal
[7] = tested on: COLO 205 colon
[8] = tested on: DU-145 prostate
[9] = tested on: EKVX NSCLC
[10] = tested on: HCT-116 colon
[11] = tested on: HCT-15 colon
[12] = tested on: HL-60(TB) leukemia
[13] = tested on: HOP-62 NSCLC
[14] = tested on: HOP-92 NSCLC
[15] = tested on: HS 578T breast
[16] = tested on: HT29 colon
[17] = tested on: IGROV1 ovarian
[18] = tested on: K-562 leukemia
[19] = tested on: KM12 colon
[20] = tested on: LOX IMVI melanoma
[21] = tested on: M14 melanoma
[22] = tested on: MALME-3M melanoma
[23] = tested on: MCF7 breast
[24] = tested on: MDA-MB-231 breast
[25] = tested on: MDA-MB-435
[26] = tested on: MDA-N
[27] = tested on: MOLT-4 leukemia
[28] = tested on: NCI-H226 lung
[29] = tested on: NCI-H23 lung
[30] = tested on: NCI-H522 lung
[31] = tested on: NCI/ADR-RES ovarian
[32] = tested on: OVCAR-3 ovarian
[33] = tested on: OVCAR-4 ovarian
[34] = tested on: OVCAR-5 ovarian
[35] = tested on: OVCAR-8 ovarian
[36] = tested on: PC-3 prostate
[37] = tested on: RPMI-8226 leukemia
[38] = tested on: RXF 393 renal
[39] = tested on: SF-268 CNS
[40] = tested on: SF-295 CNS
[41] = tested on: SK-MEL-2 melanoma
[42] = tested on: SK-MEL-28 melanoma
[43] = tested on: SK-MEL-5 melanoma
[44] = tested on: SK-OV-3 ovarian
[45] = tested on: SN12C renal
[46] = tested on: SNB-19 CNS
[47] = tested on: SR leukemia
[48] = tested on: SW-620 colon
[49] = tested on: T-47D breast
[50] = tested on: TK-10 renal
[51] = tested on: U251 CNS
[52] = tested on: UACC-257 melanoma
[53] = tested on: UACC-62 melanoma
[54] = tested on: UO-31 renal

With CC(C)(C)OCC1NC(=O)[C@@H]2Cc3c([nH]c4ccccc34)C(C3CCCCC3)N2C1=O (some centres undefined) the TGI [1] was 50.2 µM, the TGI [2] was > 100 µM and the TGI [3] was > 100 µM. For the same molecule, the TGI [4] was 68.6 µM, the TGI [5] was 56.8 µM and the TGI [6] was 53.8 µM. The TGI [7] was 51.4 µM, the TGI [8] was > 100 µM and the TGI [9] was 67.9 µM. It also gave a TGI [10] of 30.5 µM, a TGI [11] of 69 µM and a TGI [12] of 52.1 µM. It also gave a TGI [13] of 39.6 µM, a TGI [14] of 55.7 µM and a TGI [15] of 51.8 µM. The TGI [16] was 35.7 µM, the TGI [17] was 57.7 µM and the TGI [18] was 61.6 µM. For the same molecule, the TGI [19] was 44 µM, the TGI [20] was 33.3 µM and the TGI [21] was 42 µM. For the same molecule, the TGI [22] was 42.8 µM, the TGI [23] was > 100 µM and the TGI [24] was 35.1 µM. The TGI [25] was 35.7 µM, the TGI [26] was 37.4 µM and the TGI [27] was 49.6 µM. For the same molecule, the TGI [28] was 74.9 µM, the TGI [29] was 57.8 µM and the TGI [30] was 31.4 µM. The TGI [31] was 57.5 µM, the TGI [32] was 33.8 µM and the TGI [33] was > 100 µM. It also gave a TGI [34] of 50.8 µM, a TGI [35] of 87.3 µM and a TGI [36] of 46.3 µM. The TGI [37] was 49 µM, the TGI [38] was 38.4 µM and the TGI [39] was 95.6 µM. The TGI [40] was 40.8 µM, the TGI [41] was 40.8 µM and the TGI [42] was 77.6 µM. The TGI [43] was 29 µM, the TGI [44] was > 100 µM and the TGI [45] was 43.1 µM. For the same molecule, the TGI [46] was > 100 µM, the TGI [47] was 45.4 µM and the TGI [48] was 85.5 µM. It also gave a TGI [49] of 71.1 µM, a TGI [50] of 67.6 µM and a TGI [51] of 38.5 µM. For the same molecule, the TGI [52] was 41 µM, the TGI [53] was 31.2 µM and the TGI [54] was 98.8 µM.
